# Laboratory results taken from US12393007B2, “Method for adapting optical properties of an immersion mixture, and immersion mixtures and components thereof” (Carl Zeiss Microscopy GmbH, priority 2018, dated 2025).
# Counter-ions that a name gives are not always drawn.
# Assay: Refractive index ne at 23° C., reference wavelength 546.1 nm
# Assay type: physicochemical
# Conditions: not given
Molecule,ne (refractive index) of aqueous solution 200 g/L,ne (refractive index) of the substance
O.O.O.O.O.O.O.O=S(=O)([O-])[O-].[Mg+2] [magnesium sulfate heptahydrate],1.3529,–
O=C([O-])c1ccccc1O.[Na+] [sodium salicylate],1.3747,–
dimethyl propylene urea,–,1.4909
O.O.[Na+].[Na+].[O]=[W](=[O])([O-])[O-] [sodium tungstate dihydrate],1.3531,–
tetrahydrofurfuryl alcohol polyethylene glycol ether,–,1.4621
ammonium sulfate,1.3629,–
N#C[S-].[Na+] [sodium thiocyanate],1.3765,–
"OCC(F)(OC(F)(F)C(F)(OC(F)(F)C(F)(F)C(F)(F)F)C(F)(F)F)C(F)(F)F (centres unmarked) [Cheminox PO-3-OH, 2,3,3,3-tetrafluoro-2-[1,1,2,3,3,3-hexafluoro-2-(heptafluoropropoxy)propoxy]-1-propanol]",–,1.2944

# Same assay, conditions: pure substance; 23° C.; 546.1 nm
row,Molecule,ne (refractive index) of the substance
1,CCOC(=O)/C=C\C(=O)OCC [diethyl maleate],1.4414
2,CCOCCOCCOCC [diethylene glycol diethyl ether],1.4126
3,CC(=O)OCCOC(C)=O [ethylene glycol diacetate],1.4161
4,bis(hydroxymethyl)perfluoropolyether [Cheminox OXF-3PO-OH],1.3220
5,CCCCC(CC)COC(=O)CCCCCCCCC(=O)OCC(CC)CCCC (centres unmarked) [bis (2-ethylhexyl) sebacate],1.4511
6,CCOC(=O)CCC(=O)OCC [diethyl succinate],1.4200
7,CCOC(=O)CC(O)(CC(=O)OCC)C(=O)OCC [triethyl citrate],1.4431
8,CCOC(=O)/C=C/C(=O)OCC [diethyl fumarate],1.4419
9,CCCCC(CC)C(=O)OCCOCCOCCOC(=O)C(CC)CCCC (centres unmarked) [triethylene glycol bis(2-ethylhexanoate)],1.4449
10,COC(=O)/C=C\C(=O)OC [dimethyl maleate],1.4435
11,"CCCC(O)C(CC)CO (centres unmarked) [2-ethylhexane-1,3-diol]",1.4518
12,COC(=O)CCCCC(=O)OC [dimethyl adipate],1.4289
13,"CC(=O)CC(C)(C)O [diacetone alcohol, 4-hydroxy-4-methyl-2-pentanone]",1.4244

# Assay: not given
# Conditions: source Merck; cited from earlier work
row,Molecule,solubility in water (20° C.)
1,O.O.[Na+].[Na+].[O]=[W](=[O])([O-])[O-] [sodium tungstate dihydrate],730 mg/mL
2,O.O.[Na+].[Na+].[O]=[Mo](=[O])([O-])[O-] [sodium molybdate dihydrate],840 mg/mL
